From patent US5691361A, “1,4-dihydropyridine derivatives, a process for their preparation and their use for influencing the blood flow” (priority 1995, dated 1997)

Tested on: rabbit aorta strips
Experiment: Vasoconstrictory effect in rabbit aorta strips at low depolarizing conditions (10 mM K+)
Format: cell-based
Method: The vasoconstrictory effects are measured at low depolarizing conditions in rabbit aorta strips. 10 mM K^+ is used to obtain a low starting concentration. Subsequently, increasing concentrations of the test compound are added in order to achieve an increase in contraction.
The EC50 (negative logarithm of the molar concentration required to increase the calcium induced contraction of low K^+ depolarized rabbit aorta by 50%) is analysed by interpolation of the corresponding concentration-response curves (table 4).

For `CC1=C(C(=O)OCN2C(=O)c3ccccc3S2(=O)=O)C(c2cccc([N+](=O)[O-])c2)C(C(=O)OC(C)(C)C)=C(C)N1` (centres unmarked) [Example 53, 5-Tert.-butoxycarbonyl-2,6-dimethyl-4-(3-nitrophenyl)-1,4-dihydropyridine-3-carboxylic acid-N-(1,2-benzisothiazolyl-3(2H)one-1,1-dioxide)-methylester], the “vasoconstrictory properties (in words)” value was “has vasoconstrictory properties” and the EC50 (Oryctolagus cuniculus, rabbit aorta strips predepolarized with 10 mM K+) was 9.3 nM.
